This data set in a line: Fortification of water: iron content on storage, ICP-AES (Example 7). It is filed as physicochemical. How it is done:
Processed water enriched with 20-30 ppm of sodium and potassium (600 mL) was iron fortified by the addition of different iron ingredients as reported in Table 10. The amounts were chosen to provide approximately 2.1 mg of iron per litre of water. The water was stored in an oven at 40° C. for 18 weeks. The iron content was measured for each sample through ICP-AES.

As for Ferrous sulfate, the “Iron content, Week 1” value (processed water fortified at approx. 2.1 mg iron per litre, stored at 40° C., ICP-AES, week 1) is 0 (Precipitate). Besides, for the setting “processed water fortified at approx. 2.1 mg iron per litre, stored at 40° C., ICP-AES, week 18”, the “Iron content, Week 18” value is listed as 0 (Precipitate). Besides, where the note is “processed water stored at 40° C., up to 18 weeks”, the “Behaviour in fortified water (precipitation / remaining in solution)” value is recorded as “precipitates almost instantaneously”.

The values above are taken from US10617140B2, “Iron-fortified food composition” (NESTEC S.A., priority 2015, dated 2020).
